Molecules are shown by their SMILES. The source made the active and inactive calls. The calls are words filed in the database; no cut-off is given here.

This note sets out measurements from ChEMBL document CHEMBL5038622, “p-Terphenyls as Anti-HSV-1/2 Agents from a Deep-Sea-Derived Penicillium sp” (J Nat Prod, 2021).

One series relates to Dengue virus. As to the kind of experiment: Antiviral activity against Dengue virus at 20 uM. It is filed as functional, organism-based.
Series [1] has as its system Human alphaherpesvirus 1. The series can be described thus: Antiviral activity against HSV-1 infected in African green monkey Vero cells assessed as inhibition of syncytium formation at 0.63 to 10 uM coinfected for 1 hr and measured after 24 hrs by H&E staining based optical microscopic analysis. It is filed as functional, organism-based. As to conditions: dose 0.63-10 µM, time 25.0 hrs.

Series [2] deals with Human alphaherpesvirus 1. The series can be described thus: Antiviral activity against HSV-1 infected in African green monkey Vero cells assessed as reduction in plague formation at 10 uM measured after 48 hrs by crystal violet staining based plaque formation assay. It is filed as functional, organism-based.
Series [3] relates to Human alphaherpesvirus 1. As to the kind of experiment: Antiviral activity against HSV-1 infected in African green monkey Vero cells assessed as inhibition of viral replication incubated for 3 days by MTT assay. As to conditions: Human alphaherpesvirus 1, Vero, 72 h. It is filed as functional, organism-based. Background: Tetrazolium dyes change colour on reduction, which living cells bring about.

The nature of series [4]: Cytotoxicity against African green monkey Vero cells assessed as reduction in cell viability incubated for 3 days by MTT assay. Particulars: chlorocebus sabaeus, time 3 day. It is filed as toxicity, cell-based.
Another series deals with HSV-1. The series can be described thus: Selectivity index, ratio of CC50 for african green monkey Vero cells to EC50 for HSV-1 infected in African green monkey Vero cells. It is filed as toxicity. As to conditions: HSV-1 infected Vero cells.
For series [5], the system named is Human alphaherpesvirus 2. As to the kind of experiment: Antiviral activity against HSV-2 infected in African green monkey Vero cells assessed as inhibition of viral replication incubated for 3 days by MTT assay. It is filed as functional, organism-based. As to conditions: Human alphaherpesvirus 2, Vero, 72 h.
In another series the test system is HSV-2. The series can be described thus: Selectivity index, ratio of CC50 for african green monkey Vero cells to EC50 for HSV-2 infected in African green monkey Vero cells. It is filed as toxicity. As to conditions: HSV-2 infected Vero cells.
Series [6] deals with Human alphaherpesvirus 1. The series can be described thus: Antiviral activity against HSV-1 infected in African green monkey Vero cells assessed as reduction in virus-induced cytopathic effect measured after 48 hrs by MTT assay. It is filed as functional, organism-based. Particulars: dose 0.63-10 µM. (In general: Cytopathic effects are the visible damage that an infection or toxin causes in cultured cells.)

Series [7] concerns Human alphaherpesvirus 2. The series can be described thus: Antiviral activity against HSV-2 infected in African green monkey Vero cells assessed as reduction in virus-induced cytopathic effect measured after 48 hrs by MTT assay. It is filed as functional, organism-based. Particulars: dose 0.63-10 µM.
For series [8], the system named is Human alphaherpesvirus 1. The series can be described thus: Antiviral activity against HSV-1 infected in African green monkey Vero cells assessed as reduction in plague formation measured after 48 hrs by crystal violet staining based plaque formation assay. It is filed as functional, organism-based. Particulars: dose 0.63-10 µM.
Series [9] has as its system Human alphaherpesvirus 2. As to the kind of experiment: Antiviral activity against HSV-2 infected in African green monkey Vero cells assessed as reduction in plague formation measured after 48 hrs by crystal violet staining based plaque formation assay. It is filed as functional, organism-based. As to conditions: dose 0.63-10 µM.
Series [10] has as its system Human alphaherpesvirus 1. The series can be described thus: Antiviral activity against HSV-1 infected in African green monkey Vero cells assessed as reduction in virus induced glycoprotein D gene expression measured after 48 hrs by qRT-PCR analysis. It is filed as functional, organism-based. As to conditions: dose 0.63-10 µM.
Series [11] relates to Human alphaherpesvirus 1. As to the kind of experiment: Antiviral activity against HSV-1 infected in African green monkey Vero cells assessed as reduction in virus induced VP16 gene expression measured after 48 hrs by qRT-PCR analysis. It is filed as functional, organism-based. As to conditions: dose 0.63-10 µM. (In general: Real-time PCR tracks product formation cycle by cycle.)

The subject of series [12] is Human alphaherpesvirus 2. As to the kind of experiment: Antiviral activity against HSV-2 infected in African green monkey Vero cells assessed as reduction in virus induced glycoprotein D gene expression measured after 48 hrs by qRT-PCR analysis. Particulars: dose 0.63-10 µM. It is filed as functional, organism-based.
Series [13] relates to Human alphaherpesvirus 2. The series can be described thus: Antiviral activity against HSV-2 infected in African green monkey Vero cells assessed as reduction in virus induced VP16 gene expression measured after 48 hrs by qRT-PCR analysis. It is filed as functional, organism-based. As to conditions: dose 0.63-10 µM.
Series [14] has as its system Human alphaherpesvirus 1. As to the kind of experiment: Antiviral activity against HSV-1 infected in African green monkey Vero cells assessed as reduction in virus induced gD protein expression at 2.5 uM by western blot analysis. It is filed as functional, organism-based.
Series [15] relates to Human alphaherpesvirus 2. As to the kind of experiment: Antiviral activity against HSV-2 infected in African green monkey Vero cells assessed as reduction in virus induced gD protein expression at 1.3 uM by western blot analysis. It is filed as functional, organism-based.
Series [16] concerns Human alphaherpesvirus 2. As to the kind of experiment: Antiviral activity against HSV-2 infected in African green monkey Vero cells assessed as reduction in gD protein expression under co-treatment condition by western blot analysis. It is filed as functional, organism-based.
Series [17] relates to Human alphaherpesvirus 2. The series can be described thus: Antiviral activity against HSV-2 infected in African green monkey Vero cells assessed as inhibition of syncytium formation at 0.63 to 10 uM coinfected for 1 hr and measured after 24 hrs by H&E staining based optical microscopic analysis. It is filed as functional, organism-based. As to conditions: dose 0.63-10 µM, time 25.0 hrs.

The test system of another series is Zika virus. As to the kind of experiment: Antiviral activity against Zika virus at 20 uM. It is filed as functional, organism-based.
Series [18] deals with T1, Pancreatic triacylglycerol lipase (Homo sapiens) (UniProt P16233).
T1 sequence (whole entry): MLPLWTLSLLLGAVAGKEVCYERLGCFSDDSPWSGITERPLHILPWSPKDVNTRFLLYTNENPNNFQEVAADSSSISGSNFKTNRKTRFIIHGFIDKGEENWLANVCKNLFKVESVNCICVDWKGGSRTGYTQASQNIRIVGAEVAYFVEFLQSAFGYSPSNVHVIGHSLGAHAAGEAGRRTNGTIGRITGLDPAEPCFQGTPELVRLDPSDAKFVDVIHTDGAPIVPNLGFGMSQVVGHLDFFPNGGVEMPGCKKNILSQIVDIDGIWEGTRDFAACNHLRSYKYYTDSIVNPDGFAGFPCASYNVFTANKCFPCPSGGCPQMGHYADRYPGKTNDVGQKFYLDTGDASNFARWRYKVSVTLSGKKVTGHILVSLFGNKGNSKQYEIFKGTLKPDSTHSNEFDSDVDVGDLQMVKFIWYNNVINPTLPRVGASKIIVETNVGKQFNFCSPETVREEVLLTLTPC
The series can be described thus: Inhibition of pancreatic lipase (unknown origin) at 100 uM.

Another series addresses Acetylcholinesterase (Homo sapiens, UniProt P22303). As to the kind of experiment: Inhibition of AChE (unknown origin).
Series [19] relates to Human alphaherpesvirus 2. As to the kind of experiment: Antiviral activity against HSV-2 infected in African green monkey Vero cells assessed as reduction in plague formation at 5 uM measured after 48 hrs by crystal violet staining based plaque formation assay. It is filed as functional, organism-based.

Acetylcholinesterase, sequence (P22303 whole entry): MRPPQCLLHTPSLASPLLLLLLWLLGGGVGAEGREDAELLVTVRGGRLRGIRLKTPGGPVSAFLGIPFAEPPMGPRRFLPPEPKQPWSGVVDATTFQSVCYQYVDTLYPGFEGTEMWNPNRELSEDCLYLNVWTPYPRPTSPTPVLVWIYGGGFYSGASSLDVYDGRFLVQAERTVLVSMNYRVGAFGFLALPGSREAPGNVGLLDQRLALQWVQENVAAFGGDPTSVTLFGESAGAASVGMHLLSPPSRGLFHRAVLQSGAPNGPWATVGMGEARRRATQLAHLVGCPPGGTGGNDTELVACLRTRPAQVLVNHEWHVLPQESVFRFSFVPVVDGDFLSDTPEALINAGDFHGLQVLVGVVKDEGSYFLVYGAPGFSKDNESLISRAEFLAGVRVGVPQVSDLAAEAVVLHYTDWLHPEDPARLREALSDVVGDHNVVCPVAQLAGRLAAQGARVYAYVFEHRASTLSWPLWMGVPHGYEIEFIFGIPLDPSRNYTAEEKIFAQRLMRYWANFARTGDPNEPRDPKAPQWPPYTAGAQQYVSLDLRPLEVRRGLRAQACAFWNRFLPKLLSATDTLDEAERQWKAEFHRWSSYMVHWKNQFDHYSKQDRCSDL

As to `COc1c(-c2ccc(O)cc2)cc2oc3cc(O)c(O)cc3c2c1O`, the outcome in the series on Dengue virus and in the series on Zika virus was inactive. The result in the series with Human alphaherpesvirus 1 [1], in the series on Human alphaherpesvirus 1 [2], in the series on Human alphaherpesvirus 1 [8], with Human alphaherpesvirus 2 [9], with Human alphaherpesvirus 1 [14] and in the series with Human alphaherpesvirus 2 [15] was Active. For the same molecule, the outcome with Human alphaherpesvirus 2 [16], with Human alphaherpesvirus 2 [17] and with Human alphaherpesvirus 2 [19] was Active. Also, the EC50 (commonly the midpoint of the concentration-response curve) with Human alphaherpesvirus 1 [3] was 2.2 µM; in the series with Human alphaherpesvirus 2 [5] it was 1.4 µM. In addition, the CC50 (as a rule, the concentration at which the toxic effect on the cells reaches its halfway point) at 72 h in series [4] was > 100 µM. The selectivity ratio is > 45.7 in the series with HSV-1 and > 73.5 in the series on HSV-2. For the same molecule, the Activity result in the series with Human alphaherpesvirus 1 [6], with Human alphaherpesvirus 2 [7], in the series on Human alphaherpesvirus 1 [10], in the series with Human alphaherpesvirus 1 [11], with Human alphaherpesvirus 2 [12] and in the series with Human alphaherpesvirus 2 [13] was “Dose-Dependent Effect” throughout. Further, in series [18], the inhibition entry was “inactive”. The IC50 (in general, the concentration needed to halve the response being measured) against Acetylcholinesterase is 16 µM.

Turning to `COc1c(-c2ccc(O)cc2)cc(O)c2c1oc1cc(O)c(O)cc12`, the figures for the EC50 in the series with Human alphaherpesvirus 1 [3] and in the series with Human alphaherpesvirus 2 [5] were 4.1 µM and 6.5 µM, respectively. In addition, in series [4], the CC50 at 72 h is > 100 µM. Also, the selectivity ratio was > 24.7 in the series with HSV-1 and > 15.4 with HSV-2.

Turning to `Nc1nc2c(ncn2COCCO)c(=O)[nH]1` [ACYCLOVIR], the EC50 in the series on Human alphaherpesvirus 1 [3] is 3.6 µM; in the series on Human alphaherpesvirus 2 [5], 4.6 µM. Also, the CC50 at 72 h in series [4] was > 100 µM. The selectivity ratio in the series on HSV-1 was > 27.9; with HSV-2, > 21.9.

Regarding `O=c1cc(-c2ccc(O)c(O)c2)c(-c2ccc(O)c(O)c2)co1`, the EC50 was 9.3 µM with Human alphaherpesvirus 1 [3] and 8.5 µM with Human alphaherpesvirus 2 [5]. Besides, the CC50 at 72 h in series [4] was > 100 µM. Also, the selectivity ratio in the series on HSV-1 was > 10.8; in the series on HSV-2, > 11.7.

Consider `O=C1C(c2ccc(O)cc2)=CC(=O)c2c1oc1cc(O)c(O)cc21`, for which the EC50 in the series on Human alphaherpesvirus 1 [3] and in the series with Human alphaherpesvirus 2 [5] was > 20 µM each time.

Consider `COC(=O)c1cc(O)cc(OC)c1C(=O)c1c(O)cc(C)cc1O` [SULOCHRIN], for which the EC50 in the series with Human alphaherpesvirus 1 [3] and in the series on Human alphaherpesvirus 2 [5] was > 20 µM in each case.

As to `COc1c(-c2ccc(O)c(O)c2)cc(O)c2c1oc1cc(O)c(O)cc12` [6'-DESMETHYLCANDIDUSIN B], the EC50 with Human alphaherpesvirus 1 [3] came out at 4.1 µM; in the series on Human alphaherpesvirus 2 [5], 2.1 µM. Moreover, the CC50 at 72 h in series [4] is > 100 µM. Moreover, the selectivity ratio in the series with HSV-1 is > 24.4; in the series on HSV-2, > 48.5.

For `COc1c(-c2ccc(O)c(O)c2)cc(O)c(-c2ccc(O)c(O)c2)c1O`, the values for the 50% effective concentration (EC50) in the series on Human alphaherpesvirus 1 [3] and with Human alphaherpesvirus 2 [5] were 3.8 µM and 4.2 µM, respectively. Further, the CC50 at 72 h in series [4] is > 100 µM. Further, the figures for the selectivity ratio in the series on HSV-1 and in the series with HSV-2 were > 26.5 and > 23.8, respectively.

Take `COc1c(-c2ccc(O)c(O)c2)cc2oc3cc(O)c(O)cc3c2c1O`: the figures for the EC50 with Human alphaherpesvirus 1 [3] and with Human alphaherpesvirus 2 [5] were 4.3 µM and 2.4 µM, respectively. The CC50 at 72 h in [4] is > 100 µM. Moreover, the selectivity ratio with HSV-1 was > 23; in the series with HSV-2, > 41.5.

In the case of `COc1c(-c2ccc(O)cc2)cc(O)c(-c2ccc(O)c(O)c2)c1O`, the EC50 in the series with Human alphaherpesvirus 1 [3] was 1.8 µM; with Human alphaherpesvirus 2 [5] it was 2.3 µM. The CC50 at 72 h in [4] was > 100 µM. The selectivity ratio was > 54.4 in the series with HSV-1 and > 43.7 with HSV-2.
